Results reported in ChEMBL document CHEMBL1158609, “Potent antimicrobial activity of 3-(4,5-diaryl-1H-imidazol-2-yl)-1H-indole derivatives against methicillin-resistant Staphylococcus aureus” (2010).
≈ marks a conversion by molar mass, not a printed value.

Assays:
Staphylococcus aureus [1] = experiment: Antimicrobial activity against methicillin-susceptible Staphylococcus aureus; assay type: functional
Staphylococcus aureus [2] = experiment: Antimicrobial activity against methicillin-resistant Staphylococcus aureus; assay type: functional
Bacillus subtilis [3] = experiment: Antimicrobial activity against Bacillus subtilis ATCC 6633; assay type: functional
Escherichia coli [4] = experiment: Antimicrobial activity against Escherichia coli ATCC 12435; assay type: functional
Pseudomonas aeruginosa [5] = experiment: Antimicrobial activity against Pseudomonas aeruginosa ATCC 39324; assay type: functional
Escherichia coli [6] = experiment: Antimicrobial activity against Escherichia coli ATCC 35333; assay type: functional
[7] = system: Staphylococcus epidermidis; experiment: Antimicrobial activity against Staphylococcus epidermidis ATCC 13518; assay type: functional
Enterococcus faecalis [8] = experiment: Antimicrobial activity against Enterococcus faecalis ATCC 51299; assay type: functional
Streptococcus pyogenes [9] = experiment: Antimicrobial activity against Streptococcus pyogenes ATCC 19615; assay type: functional
[10] = system: Streptococcus dysgalactiae; experiment: Antimicrobial activity against Streptococcus dysgalactiae ATCC 12394; assay type: functional
Enterococcus faecalis [11] = experiment: Antimicrobial activity against Enterococcus faecalis ATCC 51559; assay type: functional
Streptococcus sanguinis = experiment: Antimicrobial activity against Streptococcus sanguinis ATCC 10556; assay type: functional
Salmonella enterica [12] = experiment: Antimicrobial activity against Salmonella Typhimurium ATCC 13311; assay type: functional, Salmonella enterica subsp. enterica serovar Typhimurium
[13] = system: Staphylococcus saprophyticus; experiment: Antimicrobial activity against Staphylococcus saprophyticus ATCC 15305; assay type: functional
Streptococcus pyogenes [14] = experiment: Antimicrobial activity against Streptococcus pyogenes ATCC 12386; assay type: functional
Salmonella enterica [15] = experiment: Antimicrobial activity against Salmonella Typhimurium ATCC 14028; assay type: functional, Salmonella enterica subsp. enterica serovar Typhimurium
Streptococcus pneumoniae = experiment: Antimicrobial activity against Streptococcus pneumoniae ATCC 49150; assay type: functional
Pseudomonas aeruginosa [16] = experiment: Antimicrobial activity against Pseudomonas aeruginosa ATCC 19142; assay type: functional
Streptococcus agalactiae = experiment: Antimicrobial activity against Streptococcus agalactiae ATCC 13813; assay type: functional
Micrococcus luteus = experiment: Antimicrobial activity against Micrococcus luteus ATCC 10240; assay type: functional
Bacillus subtilis [17] = experiment: Antimicrobial activity against Bacillus subtilis ATCC 14579; assay type: functional
[18] = system: Streptococcus dysgalactiae; experiment: Antimicrobial activity against Streptococcus dysgalactiae ATCC 12388; assay type: functional
[19] = system: Staphylococcus epidermidis; experiment: Antimicrobial activity against Staphylococcus epidermidis ATCC 35983; assay type: functional
[20] = system: Staphylococcus epidermidis; experiment: Antimicrobial activity against Staphylococcus epidermidis ATCC 12228; assay type: functional
Enterococcus faecalis [21] = experiment: Antimicrobial activity against Enterococcus faecalis ATCC 29212; assay type: functional

Cc1[nH]c2ccccc2c1-c1nc(-c2ccc(-c3ccccc3)cc2)c(-c2ccc(-c3ccccc3)cc2)[nH]1
MIC (Staphylococcus aureus [1]): > 64 µg/mL

Cc1[nH]c2ccccc2c1-c1nc(-c2ccc(N(C)C)cc2)c(-c2ccc(N(C)C)cc2)[nH]1
MIC (Staphylococcus aureus [1]): 2 µg/mL (≈ 4.59 µM)
MIC (Staphylococcus aureus [2]): 2 µg/mL (≈ 4.59 µM)

Cc1[nH]c2ccccc2c1-c1nc(-c2ccc([N+](=O)[O-])cc2)c(-c2ccc([N+](=O)[O-])cc2)[nH]1
MIC (Staphylococcus aureus [1]): > 64 µg/mL

O=[N+]([O-])c1ccc(-c2nc(-c3c[nH]c4ccc(Br)cc34)[nH]c2-c2ccccc2)cc1
MIC (Staphylococcus aureus [1]): > 64 µg/mL

Cc1[nH]c2ccccc2c1-c1nc(-c2ccc(Cl)cc2)c(-c2ccc(Cl)cc2)[nH]1
MIC (Staphylococcus aureus [1]): 4 µg/mL (≈ 9.56 µM)
MIC (Staphylococcus aureus [2]): 4 µg/mL (≈ 9.56 µM)

Cc1[nH]c2ccccc2c1-c1nc(-c2ccc([N+](=O)[O-])cc2)c(-c2ccccc2)[nH]1
MIC (Staphylococcus aureus [1]): 8 µg/mL (≈ 20.3 µM)
MIC (Staphylococcus aureus [2]): 8 µg/mL (≈ 20.3 µM)

Brc1ccc2[nH]cc(-c3nc(-c4ccc(-c5ccccc5)cc4)c(-c4ccccc4)[nH]3)c2c1
MIC (Staphylococcus aureus [1]): 4 µg/mL (≈ 8.16 µM)
MIC (Staphylococcus aureus [2]): 4 µg/mL (≈ 8.16 µM)

Cc1[nH]c2ccccc2c1-c1nc(-c2ccc(Br)cc2)c(-c2ccc(Br)cc2)[nH]1
MIC (Staphylococcus aureus [1]): 2 µg/mL (≈ 3.94 µM)
MIC (Staphylococcus aureus [2]): 2 µg/mL (≈ 3.94 µM)

Cc1ccc(-c2nc(-c3c(C)[nH]c4ccccc34)[nH]c2-c2ccccc2)cc1
MIC (Staphylococcus aureus [1]): 4 µg/mL (≈ 11 µM)
MIC (Staphylococcus aureus [2]): 4 µg/mL (≈ 11 µM)

Cc1[nH]c2ccccc2c1-c1nc(-c2ccc(Oc3ccccc3)cc2)c(-c2ccc(Oc3ccccc3)cc2)[nH]1
MIC (Staphylococcus aureus [1]): > 64 µg/mL

Cc1[nH]c2ccccc2c1-c1nc(-c2ccc(F)cc2)c(-c2ccc(F)cc2)[nH]1
MIC (Staphylococcus aureus [1]): 4 µg/mL (≈ 10.4 µM)
MIC (Staphylococcus aureus [2]): 4 µg/mL (≈ 10.4 µM)

Cc1[nH]c2ccccc2c1-c1nc(-c2ccc(F)cc2)c(-c2ccccc2)[nH]1
MIC (Staphylococcus aureus [1]): 4 µg/mL (≈ 10.9 µM)
MIC (Staphylococcus aureus [2]): 4 µg/mL (≈ 10.9 µM)

Clc1ccc(-c2nc(-c3c[nH]c4ccc(Br)cc34)[nH]c2-c2ccccc2)cc1
MIC (Staphylococcus aureus [1]): 1 µg/mL (≈ 2.23 µM)
MIC (Staphylococcus aureus [2]): 1 µg/mL (≈ 2.23 µM)

Cc1[nH]c2ccccc2c1-c1nc(-c2ccc(-c3ccccc3)cc2)c(-c2ccccc2)[nH]1
MIC (Staphylococcus aureus [1]): 4 µg/mL (≈ 9.4 µM)
MIC (Staphylococcus aureus [2]): 2 µg/mL (≈ 4.7 µM)

Cc1[nH]c2ccccc2c1-c1nc(-c2ccc(Br)cc2)c(-c2ccccc2)[nH]1
MIC (Staphylococcus aureus [1]): 4 µg/mL (≈ 9.34 µM)
MIC (Staphylococcus aureus [2]): 4 µg/mL (≈ 9.34 µM)

Cc1[nH]c2ccccc2c1-c1nc(-c2ccccc2)c(-c2ccccc2)[nH]1
MIC (Staphylococcus aureus [1]): 8 µg/mL (≈ 22.9 µM)
MIC (Staphylococcus aureus [2]): 4 µg/mL (≈ 11.4 µM)

Fc1ccc(-c2nc(-c3c[nH]c4ccc(Br)cc34)[nH]c2-c2ccccc2)cc1
MIC (Staphylococcus aureus [1]): 2 µg/mL (≈ 4.63 µM)
MIC (Staphylococcus aureus [2]): 2 µg/mL (≈ 4.63 µM)

Brc1ccc2[nH]cc(-c3nc(-c4ccc(Oc5ccccc5)cc4)c(-c4ccc(Oc5ccccc5)cc4)[nH]3)c2c1
MIC (Staphylococcus aureus [1]): > 64 µg/mL

CN[C@H](CC(C)C)C(=O)N[C@H]1C(=O)N[C@@H](CC(N)=O)C(=O)N[C@H]2C(=O)N[C@H]3C(=O)N[C@H](C(=O)N[C@H](C(=O)O)c4cc(O)cc(O)c4-c4cc3ccc4O)[C@H](O)c3ccc(c(Cl)c3)Oc3cc2cc(c3O[C@@H]2O[C@H](CO)[C@@H](O)[C@H](O)[C@H]2O[C@H]2C[C@](C)(N)[C@H](O)[C@H](C)O2)Oc2ccc(cc2Cl)[C@H]1O [VANCOMYCIN]
MIC (Bacillus subtilis [3]): 0.25 µg/mL (≈ 0.173 µM)
MIC (Escherichia coli [4]): > 64 µg/mL
MIC (Pseudomonas aeruginosa [5]): > 64 µg/mL
MIC (Escherichia coli [6]): > 64 µg/mL
MIC [7]: 0.5 µg/mL (≈ 0.345 µM)
MIC (Enterococcus faecalis [8]): 16 µg/mL (≈ 11 µM)
MIC (Streptococcus pyogenes [9]): 1 µg/mL (≈ 0.69 µM)
MIC [10]: 1 µg/mL (≈ 0.69 µM)
MIC (Enterococcus faecalis [11]): > 64 µg/mL
MIC (Streptococcus sanguinis): 1 µg/mL (≈ 0.69 µM)
MIC (Salmonella enterica [12]): > 64 µg/mL
MIC [13]: 2 µg/mL (≈ 1.38 µM)
MIC (Streptococcus pyogenes [14]): 2 µg/mL (≈ 1.38 µM)
MIC (Salmonella enterica [15]): > 64 µg/mL
MIC (Streptococcus pneumoniae): 4 µg/mL (≈ 2.76 µM)
MIC (Pseudomonas aeruginosa [16]): > 64 µg/mL
MIC (Streptococcus agalactiae): 1 µg/mL (≈ 0.69 µM)
MIC (Micrococcus luteus): 0.25 µg/mL (≈ 0.173 µM)
MIC (Bacillus subtilis [17]): 1 µg/mL (≈ 0.69 µM)
MIC [18]: 0.5 µg/mL (≈ 0.345 µM)

O=[N+]([O-])c1ccc(-c2nc(-c3c[nH]c4ccc(Br)cc34)[nH]c2-c2ccc([N+](=O)[O-])cc2)cc1
MIC (Staphylococcus aureus [1]): > 64 µg/mL

Cc1[nH]c2ccccc2c1-c1nc(-c2ccc(Cl)cc2)c(-c2ccccc2)[nH]1
MIC (Staphylococcus aureus [1]): 8 µg/mL (≈ 20.8 µM)
MIC (Staphylococcus aureus [2]): 8 µg/mL (≈ 20.8 µM)

Brc1ccc(-c2nc(-c3c[nH]c4ccc(Br)cc34)[nH]c2-c2ccccc2)cc1
MIC (Staphylococcus aureus [1]): 2 µg/mL (≈ 4.06 µM)
MIC (Staphylococcus aureus [2]): 2 µg/mL (≈ 4.06 µM)

Cc1onc(-c2ccccc2)c1C(=O)N[C@@H]1C(=O)N2[C@@H]1SC(C)(C)[C@@H]2C(=O)O [OXACILLIN]
MIC (Staphylococcus aureus [1]): 0.5 µg/mL (≈ 1.25 µM)
MIC (Staphylococcus aureus [2]): > 16 µg/mL

Cc1ccc(-c2nc(-c3c(C)[nH]c4ccccc34)[nH]c2-c2ccc(C)cc2)cc1
MIC (Staphylococcus aureus [1]): 8 µg/mL (≈ 21.2 µM)
MIC (Staphylococcus aureus [2]): 8 µg/mL (≈ 21.2 µM)

Brc1ccc(-c2nc(-c3c[nH]c4ccc(Br)cc34)[nH]c2-c2ccc(Br)cc2)cc1
MIC (Staphylococcus aureus [1]): > 64 µg/mL

CC(=O)NC[C@H]1CN(c2ccc(N3CCOCC3)c(F)c2)C(=O)O1 [LINEZOLID]
MIC (Staphylococcus aureus [1]): 1 µg/mL (≈ 2.96 µM)

CN(C)c1ccc(-c2nc(-c3c[nH]c4ccc(Br)cc34)[nH]c2-c2ccc(N(C)C)cc2)cc1
MIC (Staphylococcus aureus [1]): 2 µg/mL (≈ 4 µM)
MIC (Staphylococcus aureus [2]): 2 µg/mL (≈ 4 µM)

Cc1ccc(-c2nc(-c3c[nH]c4ccc(Br)cc34)[nH]c2-c2ccccc2)cc1
MIC (Staphylococcus aureus [1]): 2 µg/mL (≈ 4.67 µM)
MIC (Staphylococcus aureus [2]): 2 µg/mL (≈ 4.67 µM)

Cc1ccc(-c2nc(-c3c[nH]c4ccc(Br)cc34)[nH]c2-c2ccc(C)cc2)cc1
MIC (Staphylococcus aureus [1]): 2 µg/mL (≈ 4.52 µM)
MIC (Staphylococcus aureus [2]): 4 µg/mL (≈ 9.04 µM)

Brc1ccc2[nH]cc(-c3nc(-c4ccc(-c5ccccc5)cc4)c(-c4ccc(-c5ccccc5)cc4)[nH]3)c2c1
MIC (Staphylococcus aureus [1]): > 64 µg/mL

Brc1ccc2[nH]cc(-c3nc(-c4ccccc4)c(-c4ccccc4)[nH]3)c2c1
MIC (Staphylococcus aureus [1]): 4 µg/mL (≈ 9.65 µM)
MIC (Staphylococcus aureus [2]): 4 µg/mL (≈ 9.65 µM)

Clc1ccc(-c2nc(-c3c[nH]c4ccc(Br)cc34)[nH]c2-c2ccc(Cl)cc2)cc1
MIC (Staphylococcus aureus [1]): 2 µg/mL (≈ 4.14 µM)
MIC (Staphylococcus aureus [2]): 2 µg/mL (≈ 4.14 µM)

Fc1ccc(-c2nc(-c3c[nH]c4ccc(Br)cc34)[nH]c2-c2ccc(F)cc2)cc1
MIC (Bacillus subtilis [3]): 2 µg/mL (≈ 4.44 µM)
MIC (Escherichia coli [4]): > 64 µg/mL
MIC (Pseudomonas aeruginosa [5]): > 64 µg/mL
MIC (Escherichia coli [6]): > 64 µg/mL
MIC [7]: 2 µg/mL (≈ 4.44 µM)
MIC (Enterococcus faecalis [8]): 2 µg/mL (≈ 4.44 µM)
MIC (Streptococcus pyogenes [9]): 2 µg/mL (≈ 4.44 µM)
MIC [10]: 2 µg/mL (≈ 4.44 µM)
MIC (Enterococcus faecalis [11]): 2 µg/mL (≈ 4.44 µM)
MIC (Streptococcus sanguinis): 1 µg/mL (≈ 2.22 µM)
MIC (Salmonella enterica [12]): > 64 µg/mL
MIC (Staphylococcus aureus [1]): 1 µg/mL (≈ 2.22 µM)
MIC [13]: 2 µg/mL (≈ 4.44 µM)
MIC (Streptococcus pyogenes [14]): 2 µg/mL (≈ 4.44 µM)
MIC (Salmonella enterica [15]): > 64 µg/mL
MIC [19]: 2 µg/mL (≈ 4.44 µM)
MIC (Streptococcus pneumoniae): 2 µg/mL (≈ 4.44 µM)
MIC (Pseudomonas aeruginosa [16]): > 64 µg/mL
MIC (Streptococcus agalactiae): 2 µg/mL (≈ 4.44 µM)
MIC [20]: 2 µg/mL (≈ 4.44 µM)
MIC (Micrococcus luteus): 1 µg/mL (≈ 2.22 µM)
MIC (Staphylococcus aureus [2]): 1 µg/mL (≈ 2.22 µM)
MIC (Bacillus subtilis [17]): 2 µg/mL (≈ 4.44 µM)
MIC [18]: 2 µg/mL (≈ 4.44 µM)
MIC (Enterococcus faecalis [21]): 2 µg/mL (≈ 4.44 µM)
